Tests used:
[1] = MTS/PMS cell viability, MRC5; type: cell-based; conditions: human, MRC5 normal lung fibroblast cells
Experimental: The 50% inhibitory concentration (IC50) of some of these triterpenes in A549 NSCLC cells were previously determined by us. A similar procedure was performed to determine the IC50 of the triterpenes in a normal lung fibroblast cell line (MRC5). In brief, the A549 and MRC5 cells were seeded into 96-well plates at a density of 1 × 10^5 cells/mL in supplemented DMEM medium. The cells were treated with specific concentrations (A549: 5, 10, 25, 50, 75, 100, 125,150, 175, 200 μM; MRC5: 5, 10, 25, 50, 75, 100 μM) of the triterpenes and incubated for 24 h. Then, 10 uL of the MTS reagent from the CellTiter 96® Aqueous Non-Radioactive Cell Proliferation Assay (Promega G5421) was added to each well. Then, we incubated the plates at 37 °C and in a 5% CO2 atmosphere for 1 h. After incubation, the absorbance was measured at 492 nm (n = 8) in a microplate reader spectrophotometer (Thermoscientific Multiskan FC). The cell viability was calculated as follows:% Viability = (sample absorbance − sample media absorbance)/(untreated cells’ absorbance − untreated cells’ media absorbance) × 100
The cell viability data were presented by plotting the values with an average of eight measurements for each treatment (mean ± SD) in at least three independent experiments. The IC50 values were calculated with the GraphPad Prism 9 software (Prism 9; GraphPad by Dotmatics, San Diego, CA, USA) using the dose–response curve. The data were normalized by the non-linear fit of the log (drug inhibition) vs. normalized response variable slope to obtain the best fit IC50 and R-squared values.

A549 cells = assay: Externalization of phosphatidylserine, Annexin V confocal microscopy; type: cell-based, human; conditions: A549, IC25, 24 h
Experimental: Early apoptotic activity was evaluated by the externalization of PS using the Alexa Fluor® 488 Annexin V Apoptosis Reagent (Molecular Probes™) and NucBlue ReadyProbes Reagent™ (Thermo Fisher Scientific). For this assay, A549 cells were seeded in 8-well cover slip plates with a density of 1 × 10^5 cells/mL for 24 h in supplemented DMEM. Then, the A549 cells were incubated with the triterpenes (IC25) and controls for 24 h. Afterward, the cells were washed with 1× PBS and incubated with NucBlue (DAPI analog) and Annexin V for 15 min in the dark. The cells were fixed with 3.7% formaldehyde solution for 15 min, washed three times with 1× PBS, and covered with glycerol before visualization. The plates were observed by confocal microscopy using a Nikon Eclipse Ti microscope (Nikon Instruments Inc., El Segundo, CA, USA), utilizing a 20× oil objective with filter sets compatible with DAPI (Ex/Em = 405/460 nm) and Annexin V Alexa Fluor (Ex/Em = 488/525 nm). The fluorescence intensity was analyzed using the NIS-Elements Viewer program (version 5.21 64-bit) (Nikon Instruments Inc.). Each sample was analyzed in duplicate in two independent experiments. The fluorescence intensity was adjusted using untreated cells for each fluorescence channel (green and blue). Subsequently, this calibrated intensity was applied for the analysis of all treated cells.

MAPK/PI3K = MAPK/PI3K protein expression (dual pathway activation kit, flow cytometry); type: cell-based, human; conditions: for MAPK/PI3K expression (in words): A549, IC25, 24 h, vs untreated cells; for MAPK/PI3K inhibition: summary, NSCLC A549 cells; on MAPK/PI3K inhibition: key: '✔' means induction; '-' means non-induction of any of the tested processes
Experimental: (§1) We used flow cytometry to analyze several cellular mechanistic pathways in A549 cells after incubation with the triterpenes. In general, the cells were seeded in a 6-well plate at a density of 1 × 10^6 cells/mL and incubated for 24 h in supplemented DMEM. After 24 h, the A549 cells were treated with the triterpenes, following each manufacturer’s protocol. All of the following experiments were performed in a Muse® Cell Analyzer (EMD Millipore Corporation, Temecula, CA). The instrument was calibrated before each assay using the Muse® System Check Kit (Luminex MCH100101, Luminex Corporation). Each assay was run at least in two independent experiments. For each experiment, all samples were analyzed in triplicate in the instrument and the capillary line was washed after each sample run to avoid artifacts. In addition, to address the issue of cell doublets, we used the Muse® Cell Dispersal Reagent (Luminex Corporation) in all experiments. The concentration of the triterpenes in each assay was selected depending on the cellular concentration necessary to generate the gain signal in the instrument. This means that we attempted to select concentrations avoiding excessive cytotoxicity to accurately determine the respective signal from each assay.
The Muse® P13K/MAPK Dual Pathway Activation Kit (Luminex MCH200108, Luminex Corporation) was used to determine MAPK/PI3K expression. After the incubation treatment with the triterpenes (IC25) for 24 h, the A549 cells were scraped, centrifuged, and washed once with 1× PBS. Next, the fixation buffer was incubated for 10 min and then the permeabilization buffer for another 10 min. Both incubations were performed on ice. Later, the antibody cocktail containing anti-phospho-Akt and anti-phospho-ERK1/2 was incubated for 30 min. Afterward, the cell pellet was washed and suspended in fresh assay buffer for measurement.

NSCLC A549 cells = tested on: NSCLC A549 cells; set-up: method as in PMID 31338398; conditions: 24 h, MTS/PMS; already obtained by the authors; cited from earlier work
LC3-II = assay: Autophagy induction assay (LC3 antibody, flow cytometry); type: cell-based, human; conditions: for Autophagic response (in words): A549, IC25, 24 h, vs controls (untreated ratio 0.8, starving ratio 1); for Autophagy inhibition: summary, NSCLC A549 cells
Experimental: as §1
The Muse® Autophagy LC3 Antibody-Based Kit (Luminex MCH200109, Luminex Corporation) was used to determine autophagy activation by monitoring lipidated LC3-II. After the A549 cells were treated with the triterpenes (IC25) for 24 h, autophagy reagent A was added for 4 h to prevent the lysosomal degradation of LC3-II. Then, the cells were detached and centrifuged. The pellet was suspended and incubated for 30 min in the autophagy reagent B containing anti-LC3-II mouse monoclonal antibody. Finally, the cell pellet was washed and suspended in fresh assay buffer for measurement. The autophagy response was calculated using the following formula:
Autophagy ratio = mean autophagy value of treated or untreated cells/mean autophagy value of starving cells.
The starving cells were labeled ‘No supp’ as non-supplemented cells. These served as the positive signal for autophagy and were designated a ratio of 1 since they were compared to themselves. A ratio ≥1 indicates the activation of the autophagic response.

Row | SMILES | IC50 at 24 h [1] | Early apoptosis, externalization of PS (in words, qualitative) (A549 cells) | MAPK/PI3K expression (in words) (MAPK/PI3K) | MAPK/PI3K inhibition (MAPK/PI3K) | IC50 (NSCLC A549 cells) | Autophagic response (in words) (LC3-II) | Autophagy inhibition (LC3-II)
1 | C=C(C)[C@@H]1CC[C@]2(C(=O)O)CC[C@]3(C)[C@H](CC[C@@H]4[C@@]5(C)CC[C@H](O)C(C)(C)[C@@H]5CC[C@]43C)[C@@H]12 [BeA, betulinic acid] | 19 ± 0.4 µM | lowest | did not affect the expression of MAPK/PI3K | - | 15 ± 0.7 µM |  | 
2 | C=C(C)[C@@H]1CC[C@]2(CO)CC[C@]3(C)[C@H](CC[C@@H]4[C@@]5(C)CC[C@H](O)C(C)(C)[C@@H]5CC[C@]43C)[C@@H]12 [Betu, betulin] | 16 ± 0.5 µM | strongest activation | slightly inhibit the total expression of MAPK/PI3K |  |  | induced an autophagic response similar to that of CisPt | -
3 | C=C(C)[C@@H]1CC[C@]2(C)CC[C@]3(C)[C@H](CC[C@@H]4[C@@]5(C)CC[C@H](O)C(C)(C)[C@@H]5CC[C@]43C)[C@@H]12 [Lupe, lupeol] | 101 ± 8 µM | lowest | did not affect the expression of MAPK/PI3K | - | 80 ± 6 µM | inhibit the LC3-II activity | 
4 | C[C@H]1[C@H](C)CC[C@]2(C(=O)O)CC[C@]3(C)C(=CC[C@@H]4[C@@]5(C)CC[C@H](O)C(C)(C)[C@@H]5CC[C@]43C)[C@H]12 [UrA, ursolic acid] | 13 ± 1 µM | strongest activation | induced the simultaneous expression of MAPK and PI3K | - | 23 ± 1 µM | induced an autophagic response similar to that of CisPt | -
